Assay results from US9615577B2, “Herbicidally active cyclic dione compounds, or derivatives therefor, substituted by a phenyl which has an alkynyl-containing substituent” (Syngenta Limited, priority 2012, dated 2017).

Legend:
Assay type in all cases: in vivo
[1] = test system: Alopecurus myosuroides (ALOMY); assay: Test 1A glasshouse assay for herbicidal activity, pre-emergence; settings: 312 h, 250 g/ha, evaluated after 13 days, read-out: percentage phytotoxicity ALOMY
How it was run: (§1)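 Test plants grew from seed in standard soil under controlled glasshouse conditions (24/16 °C, 14 h light, 65% humidity) and received an aqueous acetone (50:50) spray with 0.5% Tween 20, either one day after sowing or after eight days. Damage was rated visually as percent phytotoxicity 13 days later.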

[2] = test system: Amaranthus retroflexus (AMARE); assay: as above; settings: 312 h, 250 g/ha, evaluated after 13 days, read-out: percentage phytotoxicity AMARE
How it was run: as §1

[3] = test system: Echinochloa crus-galli (ECHCG); assay: as above; settings: 312 h, 250 g/ha, evaluated after 13 days, read-out: percentage phytotoxicity ECHCG
How it was run: as §1

[4] = test system: Setaria faberi (SETFA); assay: as above; settings: 312 h, 250 g/ha, evaluated after 13 days, read-out: percentage phytotoxicity SETFA
How it was run: as §1

[5] = test system: Alopecurus myosuroides (ALOMY); assay: Test 1A glasshouse assay for herbicidal activity, post-emergence; settings: 312 h, evaluated after 13 days, read-out: percentage phytotoxicity ALOMY
How it was run: as §1

[6] = test system: Amaranthus retroflexus (AMARE); assay: as above; settings: 312 h, evaluated after 13 days, read-out: percentage phytotoxicity AMARE
How it was run: as §1

[7] = test system: Echinochloa crus-galli (ECHCG); assay: as above; settings: 312 h, evaluated after 13 days, read-out: percentage phytotoxicity ECHCG
How it was run: as §1

[8] = test system: Setaria faberi (SETFA); assay: as above; settings: 312 h, evaluated after 13 days, read-out: percentage phytotoxicity SETFA
How it was run: as §1

[9] = test system: Beta vulgaris (BEAVA, sugar beet); assay: Test 1B glasshouse assay for herbicidal activity, pre-emergence; settings: 480 h, 20 DAA, read-out: percentage phytotoxicity BEAVA
Experimental: (§2) Seeds of a variety of monocotyledonous and dicotyledonous test plants are sown in standard soil in pots. The plants are cultivated for one day (for pre-emergence) or for about 12 days (range=10-13 days) (for post-emergence) under controlled conditions in a glasshouse (warm climate species at 24/18° C., cool climate species at 20/16° C., both at day/night; 16 hours light; 65% humidity).
(§3) An “instant formulation”, known as the “IF50”, containing 50 g/liter (i.e. 5% w/v) of the “technical” (i.e. unformulated) active ingredient is prepared by dissolving the active ingredient in a mixture of organic solvents and emulsifier, details of which are provided in the Table below. This IF50 is then mixed with a small, variable amount of acetone to aid dissolution, before addition of a 0.2% v/v aqueous solution of the adjuvant X-77 (which is a mixture of alkyl aryl polyoxyethylene glycols and free fatty acids in isopropanol, CAS Registry number 11097-66-8), as the aqueous diluent, to form an aqueous spray solution which contains a predetermined concentration of the active ingredient (which varies depending on the application rate of the active ingredient to the plants) and 0.2% v/v of the adjuvant X-77. This aqueous spray solution is then sprayed onto the plants, after one day's cultivation (for pre-emergence) or after about 12 days' cultivation (for post-emergence).
(§4) The test plants are then grown on, in a glasshouse (greenhouse) under controlled conditions (at either 24/18° C. or 20/16° C. (day/night) as mentioned above; 16 hours light; 65% humidity) and are watered twice daily. Either 15 days after application of the herbicide (15 DAA) (for post-emergence), or 20 days after application of the herbicide (20 DAA) (for pre-emergence), the test plants are evaluated visually, and an assessed percentage phytotoxicity score is given for each herbicidal application on each plant species (where 100%=total damage to plant; 0%=no damage to plant).
(§5) Cool climate crop plants: Triticum aestivum (TRZAW, winter wheat), Brassica napus (BRSNN, rape, also called oilseed rape or rapeseed), Beta vulgaris (BEAVA, sugar beet).

[10] = test system: Brassica napus (BRSNN, rape); assay: as above; settings: 480 h, 20 DAA, read-out: percentage phytotoxicity BRSNN
Experimental: as §2, §3, §4, §5

[11] = test system: Triticum aestivum (TRZAW, winter wheat); assay: as above; settings: 480 h, 20 DAA, read-out: percentage phytotoxicity TRZAW
Experimental: as §2, §3, §4, §5

[12] = test system: Brachiaria plantaginea (BRAPL); assay: as above; settings: Urochloa plantaginea, 480 h, 500 g/ha, 20 DAA, read-out: percentage phytotoxicity BRAPL
How it was run: (§6)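 Pots of soil were sown and held one day for pre-emergence or about 12 days for post-emergence treatment, then sprayed with an aqueous solution containing 0.2% v/v X-77 adjuvant, prepared from a 50 g/liter IF50 formulation, at rate-dependent concentration. Visual damage scoring followed at 20 or 15 DAA respectively.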

[13] = test system: Brachiaria plantaginea (BRAPL); assay: Test 1B glasshouse assay for herbicidal activity, post-emergence; settings: Urochloa plantaginea; for pest or weed control at 60 g/ha: 60 g/ha application rate
How it was run: as §6

[14] = test system: Echinochloa crus-galli (ECHCG); assay: as above; settings: Echinochloa crus-galli; for pest or weed control at 60 g/ha: 60 g/ha application rate; for pest or weed control at 30 g/ha: 30 g/ha application rate
Experimental: as §2, §3, §4
Warm climate (“warm season”) grassy monocotyledonous weeds: Setaria faberi (SETFA), SORVU (Sorghum bicolor (L.) Moench ssp. Bicolor, or Sorghum vulgare Pers.), Digitaria sanguinalis (DIGSA), Echinochloa crus-galli (ECHCG), and Brachiaria plantaginea (BRAPL).
Note: The herbicidal activity data (e.g. post-emergence) shown above in Biological Example 1B for Comparator compounds X-9 and X-10 is thought likely to have been measured some years ago, probably using a variant of the above-described test method. Also, for the post-emergence activity of X-9 and X-10 it is not currently known exactly how many days after application of the herbicide the phytotoxicity on the plants was measured.

Structure (SMILES)	pest or weed control at 250 g/ha [1] [%]	pest or weed control at 250 g/ha [2] [%]	pest or weed control at 250 g/ha [3] [%]	pest or weed control at 250 g/ha [4] [%]	pest or weed control at 250 g/ha [5] [%]	pest or weed control at 250 g/ha [6] [%]	pest or weed control at 250 g/ha [7] [%]	pest or weed control at 250 g/ha [8] [%]	pest or weed control at 30 g/ha [14] [%]	pest or weed control at 30 g/ha [5] [%]	pest or weed control at 30 g/ha [6] [%]	pest or weed control at 30 g/ha [7] [%]	pest or weed control at 30 g/ha [8] [%]	other results
CC#Cc1ccc(C2C(=O)C3CCC(C3)C2=O)c(C)c1 (single isomer, unassigned) [Compound A-2]	90	0	100	70	90	0	100	100						plant injury at 500 g/ha [9]: 0%; plant injury at 500 g/ha [10]: 40%; plant injury at 500 g/ha [11]: 60%; pest or weed control at 500 g/ha [12]: 100%; pest or weed control at 60 g/ha [13]: 100%; pest or weed control at 60 g/ha [14]: 100%
CC#Cc1ccc(C2C(=O)C(C)(C)OC(C)(C)C2=O)c(C)c1 [Compound A-1]	90	0	80	90	90	10	100	70						plant injury at 500 g/ha [9]: 10%; plant injury at 500 g/ha [10]: 60%; plant injury at 500 g/ha [11]: 40%; pest or weed control at 500 g/ha [12]: 90%; pest or weed control at 60 g/ha [13]: 90%; pest or weed control at 60 g/ha [14]: 90%
Cc1cc(C#CCl)cc(C)c1C1C(=O)CC(CC2CCOCC2)CC1=O (centres unmarked) [Compound A-8]	90	90	100	90	80	40	100	90	100					pest or weed control at 30 g/ha ([13]; 30 g/ha application rate): 90%
CC#Cc1cc(C)c(C2C(=O)CC(CC3CCOCC3)CC2=O)c(C)c1 (centres unmarked) [Compound A-9]	100	100	100	100	100	30	100	90	100					plant injury at 125 g/ha ([9]; 125 g/ha): 20%; plant injury at 125 g/ha ([10]; 125 g/ha): 80%; plant injury at 125 g/ha ([11]; 125 g/ha): 20%
CC#Cc1cc(Cl)c(C2C(=O)C3CCC(C3)C2=O)c(OCC)c1 (centres unmarked) [Compound A-16]	100	80	100	100	100	70	100	100	80	90	30	100	100	plant injury at 250 g/ha [9]: 0%; plant injury at 250 g/ha [10]: 0%; plant injury at 250 g/ha [11]: 0%; pest or weed control at 125 g/ha ([14]; 125 g/ha application rate): 100%
CC#Cc1cc(Cl)c(C2C(=O)C3CCC(C)(C2=O)C3(C)C)c(OC)c1 (centres unmarked) [Compound A-17]	90	60	100	90	90	0	100	90						plant injury at 250 g/ha [9]: 0%; plant injury at 250 g/ha [10]: 0%; plant injury at 250 g/ha [11]: 0%; pest or weed control at 250 g/ha ([14]; 250 g/ha application rate): 90%
CC#Cc1cc(Cl)c(C2C(=O)CC3(CCOCC3)CC2=O)c(OC)c1 [Compound A-20, 9-(2-Chloro-6-methoxy-4-prop-1-ynyl-phenyl)-3-oxa-spiro[5.5]undecane-8,10-dione]	100	90	100	100	100	80	100	100		100	80	100	100	pest or weed control at 8 g/ha ([5]; 8 g/ha): 90%; pest or weed control at 8 g/ha ([6]; 8 g/ha): 10%; pest or weed control at 8 g/ha ([7]; 8 g/ha): 100%; pest or weed control at 8 g/ha ([8]; 8 g/ha): 90%
CC#Cc1cc(C)c(C2C(=O)CC(CCSC)CC2=O)c(C)c1 (centres unmarked) [Compound A-21, 2-(2,6-Dimethyl-4-prop-1-ynyl-phenyl)-5-(2-methylsulfanyl-ethyl)cyclohexane-1,3-dione]	100	90	100	100	90	20	100	100		50	80	80	70	
